Source: PubChem BioAssay AID256 (DTP/NCI, 2004)
Several values for one entry are separate records, joined by “and”; a condition that tells them apart may be missing. Equal values may be shown once. Inconclusive results and toxic doses are left out.

Test system: CD2F1 mice, L1210 leukemia ip, survival T/C
Test: NCI In Vivo Anticancer Drug Screen. Data for tumor model L1210 Leukemia (intraperitoneal) in CD2F1 (CDF1) mice
Settings: higher = longer survival
Procedure, shortened: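 Each value reflects a quotient of treated over vehicle control outcomes in mice with a transplanted tumor.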

[1] = endpoint: mean survival time, dose: 100.0 mg/kg/injection, schedule: Q04DX003 (ip), vehicle: saline with Tween-80
[2] = endpoint: mean survival time, dose: 75.0 mg/kg/injection, schedule: Q01DX001 (ip), vehicle: saline
[3] = endpoint: mean survival time, dose: 100.0 mg/kg/injection, schedule: Q04DX002 (ip), vehicle: saline with Tween-80
[4] = endpoint: mean survival time, dose: 50.0 mg/kg/injection, schedule: Q04DX003 (ip), vehicle: saline
[5] = endpoint: mean survival time, dose: 100.0 mg/kg/injection, schedule: Q04DX003 (ip), vehicle: saline
[6] = endpoint: mean survival time, dose: 100.0 mg/kg/injection, schedule: Q01DX001 (ip), vehicle: saline with Tween-80
[7] = endpoint: mean survival time, dose: 200.0 mg/kg/injection, schedule: Q01DX001 (ip), vehicle: saline with Tween-80
[8] = endpoint: mean survival time, dose: 400.0 mg/kg/injection, schedule: Q01DX001 (ip), vehicle: saline with Tween-80
[9] = endpoint: mean survival time, dose: 200.0 mg/kg/injection, schedule: Q04DX003 (ip), vehicle: saline with Tween-80
[10] = endpoint: mean survival time, dose: 400.0 mg/kg/injection, schedule: Q04DX003 (ip), vehicle: saline with Tween-80

In the case of CCOC(=O)CCC(NC(=O)N(CCCl)CCCl)C(=O)OCC (centres undefined), the T/C (endpoint: mean survival time, dose: 25.0 mg/kg/injection, schedule: Q01DX001 (ip), vehicle: carboxymethylcellulose (CMC)) is reported as 97 % of control, the T/C (endpoint: mean survival time, dose: 50.0 mg/kg/injection, schedule: Q01DX001 (ip), vehicle: carboxymethylcellulose (CMC)) is reported as 106 % of control and the T/C (endpoint: mean survival time, dose: 100.0 mg/kg/injection, schedule: Q01DX001 (ip), vehicle: saline) is reported as 103 % of control. For the same compound, the T/C (endpoint: mean survival time, dose: 200.0 mg/kg/injection, schedule: Q01DX001 (ip), vehicle: saline) was 114 % of control and the T/C (endpoint: mean survival time, dose: 900.0 mg/kg/injection, schedule: Q01DX001 (ip), vehicle: carboxymethylcellulose (CMC)) was 102 % of control.

For S=c1nc(-c2ccncc2)[nH][nH]1, the T/C (endpoint: mean survival time, dose: 25.0 mg/kg/injection, schedule: Q01DX009 (ip), vehicle: saline sonified) was 107 % of control, the T/C (endpoint: mean survival time, dose: 50.0 mg/kg/injection, schedule: Q01DX009 (ip), vehicle: saline sonified) was 98 % of control and the T/C (endpoint: mean survival time, dose: 100.0 mg/kg/injection, schedule: Q01DX009 (ip), vehicle: saline sonified) was 107 % of control. The T/C [1] was 100 % of control.

For O=C(Nc1ccccc1[N+](=O)[O-])c1ccc(C(=O)Nc2ccccc2[N+](=O)[O-])cc1, the T/C [2] was 87 % of control, the T/C (endpoint: mean survival time, dose: 150.0 mg/kg/injection, schedule: Q01DX001 (ip), vehicle: saline) was 96 % of control and the T/C (endpoint: mean survival time, dose: 300.0 mg/kg/injection, schedule: Q01DX001 (ip), vehicle: saline) was 91 % of control.

Cc1ncc(C[P+](c2ccccc2)(c2ccccc2)c2ccccc2)c(C)c1O was tested, and the T/C [2] was 102 % of control.

With COc1ccc(Nc2ccc(C(=C3C=CC(=[N+](C)CCC#N)C=C3)c3ccc(N(C)CCC#N)cc3)cc2)cc1 the T/C [3] was 90 % of control.

In the case of CC(C)(C)N1CC1CNC(=O)C(=O)NCC1CN1C(C)(C)C (centres undefined), the T/C (endpoint: mean survival time, dose: 0.78 mg/kg/injection, schedule: Q01DX009 (ip), vehicle: saline with Tween-80) is reported as 100 % of control and 102 % of control, the T/C (endpoint: mean survival time, dose: 1.56 mg/kg/injection, schedule: Q01DX009 (ip), vehicle: saline with Tween-80) is reported as 103 % of control and 105 % of control and the T/C (endpoint: mean survival time, dose: 3.12 mg/kg/injection, schedule: Q01DX009 (ip), vehicle: saline with Tween-80) is reported as 114 % of control and 108 % of control. The T/C (endpoint: mean survival time, dose: 12.5 mg/kg/injection, schedule: Q01DX009 (ip), vehicle: saline with Tween-80) was 171 % of control and 201 % of control, the T/C (endpoint: mean survival time, dose: 12.5 mg/kg/injection, schedule: Q01DX009 (oral), vehicle: saline with Tween-80) was 150 % of control and the T/C (endpoint: median survival time, dose: 3.13 mg/kg/injection, schedule: Q01DX009 (ip), vehicle: saline with Tween-80) was 117 % of control. For the same compound, the T/C (endpoint: median survival time, dose: 6.25 mg/kg/injection, schedule: Q01DX009 (ip), vehicle: saline with Tween-80) was 158 % of control and 171 % of control, the T/C (endpoint: median survival time, dose: 12.5 mg/kg/injection, schedule: Q01DX009 (ip), vehicle: saline with Tween-80) was 273 % of control and 275 % of control and the T/C (endpoint: median survival time, dose: 25.0 mg/kg/injection, schedule: Q01DX009 (ip), vehicle: saline with Tween-80) was 117 % of control and 98 % of control.

With CC(=O)Nc1nc(Br)c2ccccc2c1-c1ccc(N(CCOS(C)(=O)=O)CCOS(C)(=O)=O)cc1 the T/C (endpoint: mean survival time, dose: 12.5 mg/kg/injection, schedule: Q04DX003 (ip), vehicle: DMSO) was 105 % of control, the T/C (endpoint: mean survival time, dose: 25.0 mg/kg/injection, schedule: Q04DX003 (ip), vehicle: DMSO) was 105 % of control and the T/C (endpoint: mean survival time, dose: 50.0 mg/kg/injection, schedule: Q04DX003 (ip), vehicle: DMSO) was 110 % of control. The T/C (endpoint: mean survival time, dose: 100.0 mg/kg/injection, schedule: Q04DX003 (ip), vehicle: DMSO) was 121 % of control.

For Nc1ccc(Br)cc1-c1nc(N)c2cc(Br)ccc2n1, the T/C (endpoint: mean survival time, dose: 50.0 mg/kg/injection, schedule: Q01DX009 (ip), vehicle: Klucel (hydroxypropylcellulose) (HPC)) was 104 % of control, the T/C (endpoint: mean survival time, dose: 100.0 mg/kg/injection, schedule: Q01DX001 (ip), vehicle: Klucel (hydroxypropylcellulose) (HPC)) was 93 % of control and the T/C (endpoint: mean survival time, dose: 100.0 mg/kg/injection, schedule: Q01DX009 (ip), vehicle: Klucel (hydroxypropylcellulose) (HPC)) was 89 % of control. For the same compound, the T/C (endpoint: mean survival time, dose: 200.0 mg/kg/injection, schedule: Q01DX001 (ip), vehicle: Klucel (hydroxypropylcellulose) (HPC)) was 103 % of control, the T/C (endpoint: mean survival time, dose: 200.0 mg/kg/injection, schedule: Q01DX009 (ip), vehicle: Klucel (hydroxypropylcellulose) (HPC)) was 100 % of control and the T/C (endpoint: mean survival time, dose: 400.0 mg/kg/injection, schedule: Q01DX001 (ip), vehicle: Klucel (hydroxypropylcellulose) (HPC)) was 100 % of control.

With CC(C(=O)c1ccccc1)N(C)Cc1ccccc1 (centres undefined) the T/C [4] was 98 % of control, the T/C [5] was 96 % of control and the T/C (endpoint: mean survival time, dose: 200.0 mg/kg/injection, schedule: Q04DX003 (ip), vehicle: saline) was 93 % of control.

With CC(=O)Nc1cc(C)c(C)cc1[N+](=O)[O-] the T/C [6] was 98 % of control, the T/C [7] was 101 % of control and the T/C [8] was 98 % of control.

In the case of CC(=N)c1ccc(C)cc1, the T/C (endpoint: mean survival time, dose: 6.25 mg/kg/injection, schedule: Q01DX001 (ip), vehicle: saline sonified) is reported as 96 % of control, the T/C (endpoint: mean survival time, dose: 12.5 mg/kg/injection, schedule: Q01DX001 (ip), vehicle: saline sonified) is reported as 96 % of control and the T/C (endpoint: mean survival time, dose: 25.0 mg/kg/injection, schedule: Q01DX001 (ip), vehicle: saline sonified) is reported as 96 % of control.

For O=C(C[n+]1ccccc1Cc1ccccc1)c1ccccc1, the T/C (endpoint: mean survival time, dose: 25.0 mg/kg/injection, schedule: Q04DX003 (ip), vehicle: saline with Tween-80) was 93 % of control, the T/C (endpoint: mean survival time, dose: 50.0 mg/kg/injection, schedule: Q04DX003 (ip), vehicle: saline with Tween-80) was 96 % of control and the T/C [1] was 101 % of control.

For COc1ccc(CCNC(=O)Cc2ccccc2)cc1OC, the T/C [1] was 103 % of control, the T/C [9] was 94 % of control and the T/C [10] was 91 % of control.

For CCOC(=O)c1ccccc1C(C)CC (centres undefined), the T/C (endpoint: mean survival time, dose: 75.0 mg/kg/injection, schedule: Q01DX001 (ip), vehicle: other) was 98 % of control, the T/C (endpoint: mean survival time, dose: 150.0 mg/kg/injection, schedule: Q01DX001 (ip), vehicle: other) was 97 % of control and the T/C (endpoint: mean survival time, dose: 300.0 mg/kg/injection, schedule: Q01DX001 (ip), vehicle: other) was 95 % of control.

O=C1C2C3CCC(CC3)C2C(=O)C2C3CCC(C3)C12 (centres undefined) was tested, and the T/C [1] was 100 % of control, the T/C [9] was 92 % of control and the T/C [10] was 88 % of control.

For CC1(C)COC(c2ccccc2Br)=N1, the T/C [6] was 109 % of control, the T/C [7] was 101 % of control and the T/C [8] was 101 % of control.

For Cc1nc(C)c(Br)s1, the T/C (endpoint: mean survival time, dose: 25.0 mg/kg/injection, schedule: Q04DX003 (ip), vehicle: saline) was 112 % of control, the T/C [4] was 104 % of control and the T/C [5] was 106 % of control.

In the case of O=C(/C=C/c1ccc(OCc2ccccc2)c(OCc2ccccc2)c1)OCc1ccccc1, the T/C (endpoint: mean survival time, dose: 25.0 mg/kg/injection, schedule: Q04DX002 (ip), vehicle: saline with Tween-80) is reported as 102 % of control, the T/C (endpoint: mean survival time, dose: 50.0 mg/kg/injection, schedule: Q04DX002 (ip), vehicle: saline with Tween-80) is reported as 91 % of control and the T/C [3] is reported as 95 % of control. For the same compound, the T/C (endpoint: mean survival time, dose: 200.0 mg/kg/injection, schedule: Q04DX002 (ip), vehicle: saline with Tween-80) was 95 % of control.

With COc1ccc(CN2CCCNCC2)cc1 the T/C (endpoint: mean survival time, dose: 12.5 mg/kg/injection, schedule: Q01DX005 (ip), vehicle: water) was 95 % of control, the T/C (endpoint: mean survival time, dose: 25.0 mg/kg/injection, schedule: Q01DX005 (ip), vehicle: water) was 95 % of control and the T/C (endpoint: mean survival time, dose: 50.0 mg/kg/injection, schedule: Q01DX005 (ip), vehicle: water) was 97 % of control. For the same compound, the T/C (endpoint: mean survival time, dose: 100.0 mg/kg/injection, schedule: Q01DX005 (ip), vehicle: water) was 101 % of control and the T/C (endpoint: mean survival time, dose: 200.0 mg/kg/injection, schedule: Q01DX005 (ip), vehicle: water) was 95 % of control.
